{"source": "paper PMC3551614", "about": "(Journal of the American Chemical Society, 2012)", "target": "T1, VEGF (Homo sapiens, UniProt P15692)", "T1 sequence (P15692 1-191 isoform P15692-4)": "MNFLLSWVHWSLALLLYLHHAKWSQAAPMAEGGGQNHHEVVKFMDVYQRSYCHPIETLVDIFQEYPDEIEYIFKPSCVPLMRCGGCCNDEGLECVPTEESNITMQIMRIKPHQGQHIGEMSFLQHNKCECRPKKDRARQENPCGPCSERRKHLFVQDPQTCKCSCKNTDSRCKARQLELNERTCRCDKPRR", "test": "direct FP binding of N-terminal fluorescein derivatives", "settings": "domain 2 of VEGFR1 as competitor", "note": "Numbered stars: 1 amine (or outer) side, 2 acyl side, 3 side chain; on linkers, the order of the positions; unused ones are H or OH. Bridge positions count the residues as written; N and C are the ends. Square brackets hold non-standard residues; d marks the D form. Peptide text beside a SMILES is read from it. * marks the point of attachment. 5FAM = O=C1OC2(c3ccc(O)cc3Oc3cc(O)ccc32)c2ccc(C(=O)*)cc21; X1 = O=C([C@H]1CNC[C@@H]1N[*:1])[*:2]; β3hE = N[C@@H](CCC(=O)O)CC(=O)O; β3hN = NC(=O)C[C@H](N)CC(=O)O; β3hL = CC(C)C[C@H](N)CC(=O)O; Nle = CCCC[C@H](N)C(=O)O"}
{"smiles": "CCCC[C@@H]1NC(=O)[C@H](C(C)C)NC(=O)[C@H](Cc2c[nH]cn2)NC(=O)[C@H]([C@@H](C)CC)NC(=O)[C@H](CC(=O)O)NC(=O)[C@@H](NC(=O)C[C@H](CC(N)=O)NC(=O)[C@@H]2CCCN2C(=O)C[C@H](CCC(=O)O)NC(=O)[C@@H](NC(=O)c2ccc3c(c2)C(=O)OC32c3ccc(O)cc3Oc3cc(O)ccc32)C(C)C)CSSC[C@@H](C(=O)N[C@@H](Cc2ccccc2)C(=O)N[C@H]2CNC[C@@H]2C(=O)N[C@@H](CCCNC(=N)N)C(=O)N[C@H](CC(N)=O)CC(C)C)NC(=O)[C@H](CCC(=O)O)NC(=O)[C@H](Cc2c[nH]c3ccccc23)NC(=O)C[C@H](CCC(=O)O)NC(=O)[C@H](Cc2c[nH]c3ccccc23)NC1=O", "note": "[Flu-3] (5FAM-V[β3hE]P[β3hN]CDIHV[Nle]W[β3hE]WECF[X1]R[β3hL]-NH2; disulfide 5-15; N-terminus and C-terminus assumed)", "values": [{"measurement": "displacement from VEGF by domain 2 of VEGFR1", "result": "displaces"}]}
